Results published in patent publication US20220064204A1, “AMORPHOUS FORM OF 5-BROMOPYRIDIN-3-YL 3-DEOXY-3-[4-(3,4,5-TRIFLUOROPHENYL)-1H-1,2,3-TRIAZOL-1-YL]-1-THIO-ALPHA-D-GALACTOPYRANOSIDE” (GALECTO BIOTECH AB, priority 2018, published 2022).
Like-named read-outs stand apart in the source and are kept apart here.

How the values were obtained:
[1] = Phase 1 first-in-human study, single oral dose pharmacokinetics in healthy subjects (drug layered formulation capsules); assay type: in vivo; conditions: plasma; for half-life / AUC(0-t) / Tmax / AUC(0-inf): human; for half-life / AUC(0-t) / Tmax: po; for half-life / AUC(0-t) / AUC(0-inf): geometric mean; for AUC(0-t): read-out: AUC0-24; for Tmax / Tlog: median
Procedure: The first part of this study aims to obtain safety, tolerability and pharmacokinetic data when the compound of formula I is administered orally as a single dose in healthy subjects using the above drug layered formulation.
Experimental Data from Healthy Subject Cohort A1: 5 mg Compound of Formula I (API)
6 healthy subjects received 5 mg of compound of formula I capsules orally as a single dose in the fasted state, and 2 subjects receive placebo. The first 2 subjects (1 active and 1 placebo) were dosed 24 hours before the remaining subjects. Blood samples for pharmacokinetic analysis of plasma API concentrations were obtained by venipuncture before dosing, and then at 0.5, 1, 1.5, 2, 3, 4, 6, 8, 12, 16, 24, 36, and 48 hours post dose. […]
Experimental Data from Healthy Subject Cohort A3 Fasted: 50 mg Compound of Formula I (API)
(§1) 6 healthy subjects received 50 mg of compound of formula I capsules orally as a single dose in the fasted state, and 2 subjects receive placebo. The first 2 subjects (1 active and 1 placebo) were dosed 24 hours before the remaining subjects. Blood samples for pharmacokinetic analysis of plasma API concentrations were obtained by venipuncture before dosing, and then at 0.5, 1, 1.5, 2, 3, 4, 6, 8, 12, 16, 24, 36, and 48 hours post dose.
Experimental Data from Healthy Subject Cohort A3 Fed: 50 mg Compound of Formula I (API)
as §1, with “fed” for “fasted”, “dose. […]” for “dose.”
Experimental Data from Healthy Subject Cohort A5: 100 mg Compound of Formula I (API)
as §1, with “100” for “50”
Experimental Data from Healthy Subject Cohort A6: 200 mg Compound of Formula I (API)
as §1, with “200” for “50”
Experimental Data from Healthy Subject Cohort A7: 400 mg Compound of Formula I (API)
as §1, with “400” for “50”

[2] = Material characterization by TGA and dynamic vapor sorption (DVS); assay type: physicochemical; conditions: crystalline compound
[3] = Solubility of the crystalline compound (statement); assay type: physicochemical; conditions: highly crystalline compound
[4] = Dissolution of filled capsules / pellets in biorelevant media (FaSSIF); assay type: physicochemical; conditions: 18 hours
Procedure: As an alternative to poloxamer 188, the surfactant SLS was also evaluated to aid in the dispersion of the SDD.
The resulting drug layered pellets were analysed by UV-HPLC to determine the drug loading as well as by SEM, XRPD and Dissolution in biorelevant media.
The dissolution profile of the drug-layered pellets was compared to the dissolution profiles of the API alone as well an ASD formulation (physical mixture of SDD (API:HPMC603=1:2) and poloxamer 188) (see FIG. 4).

[5] = Phase 1 study, multiple oral dose (twice a day for 10 days) pharmacokinetics in healthy subjects; assay type: in vivo, human; conditions: fasted state; for half-life: po
Procedure: The second part of this study aims to obtain safety, tolerability and pharmacokinetic data when the compound of formula I is administered orally dosed twice a day for 10 days in healthy subjects using the above drug layered formulation.
Experimental Data from Healthy Subject Cohort B1: 50 mg Compound of Formula I (API)
(§2) 8 healthy subjects received 50 mg of compound of formula I capsules and 3 subjects receive placebo orally twice a day for 10 days. Blood samples for pharmacokinetic analysis of plasma API concentrations were obtained by venipuncture before dosing on day 1, and then at 0.5, 1, 1.5, 2, 3, 4, 6, 8, 12, 16, 24, 36, and 48 hours post dose. Blood sampling was repeated on day 10.
Experimental Data from Healthy Subject Cohort B2: 100 mg Compound of Formula I
as §2, with “received 100” for “received 50”, “16, 24” for “16, 24, 36, and 48”, “repeated at” for “repeated on”

[6] = First in human study, safety and tolerability, single and multiple ascending doses; assay type: in vivo; conditions: oral
Procedure: The compound of formula I is tested in a Phase 1, randomized, double-blind, placebo-controlled, first-in-human study in which the safety, tolerability, and pharmacokinetics of orally administered compound of formula I is evaluated in healthy adult subjects and adult subjects with indication of suspected Nonalcoholic steatohepatitis (NASH) and liver fibrosis.
This study aims to obtain safety, tolerability and pharmacokinetic data when the compound of formula I is administered orally as single doses and as multiple doses to healthy subjects. In addition, an optional part has been included to obtain safety and tolerability data when the compound of formula I is administered orally as multiple doses to subjects with suspected Nonalcoholic steatohepatitis (NASH) and liver fibrosis.

[7] = 5 mg, single oral dose 5 mg, fasted state
[8] = 20 mg, single oral dose 20 mg, fasted state
[9] = 50 mg, single oral dose 50 mg (1 × 50 mg), fasted state
[10] = 50 mg, single oral dose 50 mg (1 × 50 mg), fed state
[11] = 100 mg, single oral dose 100 mg, fasted state
[12] = 200 mg, single oral dose 200 mg, fasted state
[13] = 400 mg, single oral dose 400 mg, fasted state
[14] = single oral dose 100 mg, fasted state
[15] = single oral dose 200 mg, fasted state
[16] = single oral dose 400 mg, fasted state
[17] = 50 mg BID oral, Day 10, healthy subjects, geometric mean
[18] = 100 mg BID oral, Day 10, healthy subjects, geometric mean

SMILES: OC[C@H]1O[C@H](Sc2cncc(Br)c2)[C@H](O)[C@@H](n2cc(-c3cc(F)c(F)c(F)c3)nn2)[C@H]1O [GB1211, 5-Bromopyridin-3-yl 3-deoxy-3-[4-(3,4,5-trifluorophenyl)-1H-1,2,3-triazol-1-yl]-1-thio-α-D-galactopyranoside]
- half-life [1, 7]: 11.2 h
- AUC(0-t) [1, 7]: 585 ng·h/mL
- Tmax [1, 7]: 2 h
- half-life [1, 8]: 12.4 h
- AUC(0-t) [1, 8]: 2670 ng·h/mL
- half-life [1, 9]: 12.6 h
- AUC(0-t) [1, 9]: 3400 ng·h/mL
- Tmax [1, 9]: 3 h
- half-life [1, 10]: 12.8 h
- AUC(0-t) [1, 10]: 3820 ng·h/mL
- Tmax [1, 10]: 5 h
- AUC(0-t) ([1]; 50 mg, single oral dose 50 mg (10 × 5 mg), fasted state): 5770 ng·h/mL
- half-life [1, 11]: 12.1 h
- AUC(0-t) [1, 11]: 4900 ng·h/mL
- Tmax [1, 11]: 3.5 h
- half-life [1, 12]: 15.1 h
- AUC(0-t) [1, 12]: 9050 ng·h/mL
- Tmax [1, 12]: 3.5 h
- half-life [1, 13]: 14.5 h
- AUC(0-t) [1, 13]: 15100 ng·h/mL
- Tmax [1, 13]: 4 h
- AUC(0-inf) [1, 14]: 6360 ng·h/mL
- AUC(0-inf) [1, 15]: 13100 ng·h/mL
- AUC(0-inf) [1, 16]: 21500 ng·h/mL
- Tlog ([1]; single oral dose 5 mg, fasted state): 0.00 h
- Tlog ([1]; single oral dose 20 mg, fasted state): 0.00 h
- Tlog ([1]; single oral dose 50 mg (1 × 50 mg), fasted state): 0.00 h
- Tlog ([1]; single oral dose 50 mg (1 × 50 mg), fed state): 0.75 h
- Tlog ([1]; single oral dose 50 mg (10 × 5 mg), fasted state): 0.00 h
- Tlog [1, 14]: 0.00 h
- Tlog [1, 15]: 0.00 h
- Tlog [1, 16]: 0.00 h
- hydrate formation ([2]; DVS): no indication of hydrate formation
- hygroscopicity ([2]; dynamic vapor sorption (DVS)): not hygroscopic
- solubility [3]: relatively low solubility
- API released in the dissolution media ([4]; FaSSIF): less than 12%
- API concentration in FaSSIF ([4]; dissolution): 0.011 mg/mL
- Cmin [5, 17]: 249 ng/mL
- RAAUC [5, 17]: 2.31
- Cmin [5, 18]: 338 ng/mL
- RAAUC [5, 18]: 2.11
- half-life ([5]; human, plasma, 50 mg, 50 mg BID oral, Day 1, geometric mean, unreliable due to short sampling duration 0-12 hours, exploratory): 7.34 h
- half-life ([5]; human, plasma, 50 mg, 50 mg BID oral, Day 10, healthy subjects, geometric mean): 20.2 h
- half-life ([5]; human, plasma, 100 mg, 100 mg BID oral, Day 1, geometric mean, unreliable due to short sampling duration 0-12 hours, exploratory): 7.04 h
- half-life ([5]; human, plasma, 100 mg, 100 mg BID oral, Day 10, healthy subjects, geometric mean): 12.5 h
- Cmax ([5]; human, plasma, 50 mg BID oral, Day 1, healthy subjects, geometric mean): 330 ng/mL
- safety and tolerability in man [6]: safe and well tolerated
